These results are taken from patent publication US20260015358A1, “BICYCLIC DERIVATIVES, COMPOSITIONS AND USES THEREOF” (Danatlas Pharmaceuticals Co., Ltd., priority 2023, published 2026).

A value given as a limit tells only on which side of the number the result lay.

For assay [1], the target named is T1, WRN [UniPro: Q14191 (WRN_HUMAN), N500-C946] (Homo sapiens (Human), UniProt Q14191). Put plainly: WRN ATPase assay (ADP-Glo). In kind it is biochemical. The note with it: WRN enzymatic activity assay. As to the method: WRN ATPase assay was initiated to evaluate potential inhibitory effect of compounds for ATP hydrolysis activity of WRN protein. WRN [UniPro: Q14191 (WRN_HUMAN), N500-C946] was expressed and purified in insect system and stored at −80° C. in aliquots. […] ADP quantity produced from ATP hydrolysis by WRN catalytic reaction was measured using a commercially available ADP-Glo Assay (ADP-Glo™ Kinase Assay from Promega, 10000 assays, #V9102). […] Compounds dissolved in DMSO (Sigma, D8418) were plated into a 96-well intermediate plate (BioFil, VWP-032-096) for 3-fold serial titration for 10 points using DMSO, and well-to-well transfer the titrated compounds into another 96-well intermediate plate including assay buffer in advance. Shake the 96-well intermediate plate at 600 rpm for 10 min to fully mix. Specifically, a 4× working mixture of WRN was diluted to a concentration of 8 nM in assay buffer. […] After centrifuging at 1000 rpm and shaking at 500 rpm, the assay plate was pre-incubated for 30 min. Then, 5 μL 2×FORKF DNA and ATP working mixture was dispensed into assay plate. Plate was sealed, centrifuged and incubated for an additional 40 min. at 37° C. The reaction was stopped with the addition of 10 μL of the first ADP-Glo reagent and incubated for 40 min. to remove the excess amount of ATP. Afterwards, 20 μL of ATP detection reagent was added and incubated for 30 min. before reading. Luminescence output was recorded using BMG CLARIO star plus reader. Each concentration of compound was tested in duplicates in the assay plate. Average luminescence signal of high control (Wells with 1% DMSO) was calculated as High Control (HC). Average luminescence signal of low control (Wells with no WRN protein) was calculated as Low control (LC).
T1 sequence (Q14191 500-946): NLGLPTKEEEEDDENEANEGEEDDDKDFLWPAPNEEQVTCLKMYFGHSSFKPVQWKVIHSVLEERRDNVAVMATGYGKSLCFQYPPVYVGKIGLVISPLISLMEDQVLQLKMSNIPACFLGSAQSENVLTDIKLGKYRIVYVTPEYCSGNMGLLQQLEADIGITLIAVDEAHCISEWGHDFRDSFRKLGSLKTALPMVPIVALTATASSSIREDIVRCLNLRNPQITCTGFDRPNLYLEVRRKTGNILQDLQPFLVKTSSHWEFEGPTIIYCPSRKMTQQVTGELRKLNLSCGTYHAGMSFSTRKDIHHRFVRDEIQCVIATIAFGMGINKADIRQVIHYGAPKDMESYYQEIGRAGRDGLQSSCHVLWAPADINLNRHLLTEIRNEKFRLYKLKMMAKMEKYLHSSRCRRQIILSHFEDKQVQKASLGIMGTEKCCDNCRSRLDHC
IC50 values were determined by fitting the data to the standard 4 parameters with Hill Slope using GraphPad Prism software.
For orientation: ADP-Glo first removes unused ATP, then detects ADP through luciferase.

The target of assay [2] is T1, WRN [UniPro: Q14191 (WRN_HUMAN), N500-C946]. Briefly: WRN unwinding assay (FORKF DNA, fluorescence). It counts as biochemical. Conditions: Table 14.

One may read the IC50 as the concentration that inhibits the measured activity by half. Low readings indicate greater potency in that assay, high ones weaker potency in that assay. With `CCc1c(N2CCN(C(=O)c3nc(C(F)(F)F)c[nH]3)CC2)c(=O)n2nc(C3=CCOCC3)nc2n1CC(=O)Nc1ccc(C(F)(F)F)cc1Cl` [Example 1, N-(2-Chloro-4-(trifluoromethyl)phenyl)-2-(2-(3,6-dihydro-2H-pyran-4-yl)-5-ethyl-7-oxo-6-(4-(4-(trifluoromethyl)-1H-imidazole-2-carbonyl)piperazin-1-yl)-[1,2,4]triazolo[1,5-a]pyrimidin-4(7H)-yl)acetamide], the IC50 in assay [1] and in assay [2] was 100 to 1000 nM each time.

As for `CCc1c(N2CCN(C(=O)c3sc4cccnc4c3N)CC2)c(=O)n2nc(C3=CCOCC3)nc2n1CC(=O)Nc1ccc(C(F)(F)F)cc1Cl` [Example 2, 2-(6-(4-(3-Aminothieno[3,2-b]pyridine-2-carbonyl)piperazin-1-yl)-2-(3,6-dihydro-2H-pyran-4-yl)-5-ethyl-7-oxo-[1,2,4]triazolo[1,5-a]pyrimidin-4(7H)-yl)-N-(2-chloro-4-(trifluoromethyl)phenyl)acetamide], the IC50 in assay [1] and in assay [2] was 100 to 1000 nM throughout.

For the compound `CCc1c(N2CCN(C(=O)c3cnc4[nH]ncc4c3O)CC2)c(=O)n2nc(C3=CCOCC3)nc2n1CC(=O)Nc1ccc(C(F)(F)F)cc1Cl` [Example 3, N-(2-Chloro-4-(trifluoromethyl)phenyl)-2-(2-(3,6-dihydro-2H-pyran-4-yl)-5-ethyl-6-(4-(4-hydroxy-1H-pyrazolo[3,4-b]pyridine-5-carbonyl)piperazin-1-yl)-7-oxo-[1,2,4]triazolo[1,5-a]pyrimidin-4(7H)-yl)acetamide], the IC50 in assay [1] and in assay [2] was less than 100 nM throughout.

On to `CCc1c(N2CCN(C(=O)c3c(O)cc(C)oc3=O)CC2)c(=O)n2nc(C3=CCOCC3)nc2n1CC(=O)Nc1ccc(C(F)(F)F)cc1Cl` [Example 4, N-(2-Chloro-4-(trifluoromethyl)phenyl)-2-(2-(3,6-dihydro-2H-pyran-4-yl)-5-ethyl-6-(4-(4-hydroxy-6-methyl-2-oxo-2H-pyran-3-carbonyl)piperazin-1-yl)-7-oxo-[1,2,4]triazolo[1,5-a]pyrimidin-4(7H)-yl)acetamide], for which the IC50 in assay [1] and in assay [2] was less than 100 nM throughout.

On to `CCNC(=NCCCN(C)C)N1CCN(c2c(CC)n(CC(=O)Nc3ccc(C(F)(F)F)cc3C)c3nc(C4=CCOCC4)nn3c2=O)CC1` [Example 5, 2-(2-(3,6-Dihydro-2H-pyran-4-yl)-6-(4-(N′-(3-(dimethylamino)propyl)-N-ethylcarbamimidoyl)piperazin-1-yl)-5-ethyl-7-oxo-[1,2,4]triazolo[1,5-a]pyrimidin-4(7H)-yl)-N-(2-methyl-4-(trifluoromethyl)phenyl)acetamide], for which the IC50 in assay [1] and in assay [2] was greater than 1000 nM in each case.

As for `CCc1c(N2CCN(C(=O)c3sc4cnccc4c3N)CC2)c(=O)n2nc(C3=CCOCC3)nc2n1CC(=O)Nc1ccc(C(F)(F)F)cc1Cl` [Example 6, 2-(6-(4-(3-Aminothieno[2,3-c]pyridine-2-carbonyl)piperazin-1-yl)-2-(3,6-dihydro-2H-pyran-4-yl)-5-ethyl-7-oxo-[1,2,4]triazolo[1,5-a]pyrimidin-4(7H)-yl)-N-(2-chloro-4-(trifluoromethyl)phenyl)acetamide], the values for the IC50 in assay [1] and in assay [2] were 100 to 1000 nM and less than 100 nM, respectively.

Regarding `CCc1c(N2CCN(c3nnc(C(F)F)s3)CC2)c(=O)n2nc(C3=CCOCC3)nc2n1CC(=O)Nc1ccc(C(F)(F)F)cc1Cl` [Example 8, N-(2-Chloro-4-(trifluoromethyl)phenyl)-2-(6-(4-(5-(difluoromethyl)-1,3,4-thiadiazol-2-yl)piperazin-1-yl)-2-(3,6-dihydro-2H-pyran-4-yl)-5-ethyl-7-oxo-[1,2,4]triazolo[1,5-a]pyrimidin-4(7H)-yl)acetamide], the half-inhibitory concentration (IC50) in assay [1] and in assay [2] was greater than 1000 nM in each case.

Regarding `CCc1c(N2CCN(C(=O)c3cc(-c4cc(OC)ncc4F)[nH]n3)CC2)c(=O)n2nc(C3=CCOCC3)nc2n1CC(=O)Nc1ccc(C(F)(F)F)cc1Cl` [Example 9, N-(2-Chloro-4-(trifluoromethyl)phenyl)-2-(2-(3,6-dihydro-2H-pyran-4-yl)-5-ethyl-6-(4-(5-(5-fluoro-2-methoxypyridin-4-yl)-1H-pyrazole-3-carbonyl)piperazin-1-yl)-7-oxo-[1,2,4]triazolo[1,5-a]pyrimidin-4(7H)-yl)acetamide], the IC50 was 100 to 1000 nM in assay [1] and greater than 1000 nM in assay [2].

Turning to `CCc1c(N2CCN(S(=O)(=O)CC)CC2)c(=O)n2nc(C3=CCOCC3)nc2n1CC(=O)Nc1ccc(C(F)(F)F)cc1Cl` [Example 11, N-(2-Chloro-4-(trifluoromethyl)phenyl)-2-(2-(3,6-dihydro-2H-pyran-4-yl)-5-ethyl-6-(4-(ethylsulfonyl)piperazin-1-yl)-7-oxo-[1,2,4]triazolo[1,5-a]pyrimidin-4(7H)-yl)acetamide], the IC50 in assay [1] is 100 to 1000 nM; in assay [2], greater than 1000 nM.

In the case of `CCc1c(N2CCN(C(=O)NS(=O)(=O)c3cnn(C)c3)CC2)c(=O)n2nc(C3=CCOCC3)nc2n1CC(=O)Nc1ccc(C(F)(F)F)cc1Cl` [Example 14, 4-(4-(2-((2-Chloro-4-(trifluoromethyl)phenyl)amino)-2-oxoethyl)-2-(3,6-dihydro-2H-pyran-4-yl)-5-ethyl-7-oxo-4,7-dihydro-[1,2,4]triazolo[1,5-a]pyrimidin-6-yl)-N-((1-methyl-1H-pyrazol-4-yl)sulfonyl)piperazine-1-carboxamide], the IC50 in assay [1] and in assay [2] was less than 100 nM throughout.

Regarding `CCc1c(N2CCN(C(=O)c3ncnc4cn[nH]c34)CC2)c(=O)n2nc(C3=CCOCC3)nc2n1CC(=O)Nc1ccc(C(F)(F)F)cc1Cl` [Example 17, 2-(6-(4-(1H-Pyrazolo[4,3-d]pyrimidine-7-carbonyl)piperazin-1-yl)-2-(3,6-dihydro-2H-pyran-4-yl)-5-ethyl-7-oxo-[1,2,4]triazolo[1,5-a]pyrimidin-4(7H)-yl)-N-(2-chloro-4-(trifluoromethyl)phenyl)acetamide], the IC50 in assay [1] and in assay [2] was less than 100 nM each time.

For `CCc1c(N2CCN(C(=O)Nc3[nH]ncc3C(F)(F)F)CC2)c(=O)n2nc(C3=CCOCC3)nc2n1CC(=O)Nc1ccc(C(F)(F)F)cc1Cl` [Example 18, 4-(4-(2-((2-Chloro-4-(trifluoromethyl)phenyl)amino)-2-oxoethyl)-2-(3,6-dihydro-2H-pyran-4-yl)-5-ethyl-7-oxo-4,7-dihydro-[1,2,4]triazolo[1,5-a]pyrimidin-6-yl)-N-(4-(trifluoromethyl)-1H-pyrazol-5-yl)piperazine-1-carboxamide], the IC50 in assay [1] and in assay [2] was 100 to 1000 nM in each case.

As to `CCc1c(N2CCN(C(=O)c3[nH]ncc3C(F)(F)F)CC2)c(=O)n2nc(C3=CCOCC3)nc2n1CC(=O)Nc1ccc(C(F)(F)F)cc1Cl` [Example 19, N-(2-Chloro-4-(trifluoromethyl)phenyl)-2-(2-(3,6-dihydro-2H-pyran-4-yl)-5-ethyl-7-oxo-6-(4-(4-(trifluoromethyl)-1H-pyrazole-5-carbonyl)piperazin-1-yl)-[1,2,4]triazolo[1,5-a]pyrimidin-4(7H)-yl)acetamide], the IC50 in assay [1] and in assay [2] was greater than 1000 nM throughout.

Turning to `CCc1c(N2CCN(C(=O)c3[nH]c(=O)oc3C(F)(F)F)CC2)c(=O)n2nc(C3=CCOCC3)nc2n1CC(=O)Nc1ccc(C(F)(F)F)cc1Cl` [Example 317, N-(2-Chloro-4-(trifluoromethyl)phenyl)-2-(2-(3,6-dihydro-2H-pyran-4-yl)-5-ethyl-7-oxo-6-(4-(2-oxo-5-(trifluoromethyl)-2,3-dihydrooxazole-4-carbonyl)piperazin-1-yl)-[1,2,4]triazolo[1,5-a]pyrimidin-4(7H)-yl)acetamide], the IC50 in assay [2] was 100 to 1000 nM.

In assay [2], `CCc1c(N2CCN(C(=O)/C=C/c3cnccc3O)CC2)c(=O)n2nc(C3=CCOCC3)nc2n1CC(=O)Nc1ccc(C(F)(F)F)cc1F` [Example 328, (E)-2-(2-(3,6-Dihydro-2H-pyran-4-yl)-5-ethyl-6-(4-(3-(4-hydroxypyridin-3-yl)acryloyl)piperazin-1-yl)-7-oxo-[1,2,4]triazolo[1,5-a]pyrimidin-4(7H)-yl)-N-(2-fluoro-4-(trifluoromethyl)phenyl)acetamide] yielded an IC50 of 100 to 1000 nM.

`CCc1c(N2CCN(C(=O)CNC(=O)CN3CCCC3)CC2)c(=O)n2nc(C3=CCOCC3)nc2n1CC(=O)Nc1ccc(C(F)(F)F)cc1Cl` [Example 339, N-(2-Chloro-4-(trifluoromethyl)phenyl)-2-(2-(3,6-dihydro-2H-pyran-4-yl)-5-ethyl-7-oxo-6-(4-((2-(pyrrolidin-1-yl)acetyl)glycyl)piperazin-1-yl)-[1,2,4]triazolo[1,5-a]pyrimidin-4(7H)-yl)acetamide]: the IC50 in assay [2] is 100 to 1000 nM.
